We go through 14 molecules from patent publication US20030044399A1, “Method of treatment” (SmithKline Beecham Corporation, priority 1998, published 2003).

Where two headings read alike, the source gives them in different places.

For assay [1], the target named is T1, Leishmania B (UniProt P90627).
T1 sequence (P90627 1-340): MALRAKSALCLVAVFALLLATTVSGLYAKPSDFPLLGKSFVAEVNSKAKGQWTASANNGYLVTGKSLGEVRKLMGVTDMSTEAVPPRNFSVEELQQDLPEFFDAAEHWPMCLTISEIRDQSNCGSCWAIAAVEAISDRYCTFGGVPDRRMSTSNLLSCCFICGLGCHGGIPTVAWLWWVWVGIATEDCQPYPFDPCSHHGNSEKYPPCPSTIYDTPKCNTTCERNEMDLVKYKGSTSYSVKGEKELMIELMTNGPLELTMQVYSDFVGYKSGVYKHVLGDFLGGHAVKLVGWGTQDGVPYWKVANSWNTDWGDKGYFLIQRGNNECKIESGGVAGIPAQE
Briefly: Cysteine protease inhibition, progress curve method, leishmania B. It is filed as biochemical, Leishmania spp. The note with it: read-out: Leishmania B Ki nM; 10 uM Cbz-Phe-Arg-AMC, 100 mM Na acetate pH 5.5, 5 mM cysteine. The method, then: (§1) Standard assay conditions for the determination of kinetic constants used 10 uM fluorogenic peptide substrate, Cbz-Phe-Arg-AMC for the cysteine proteases from Leishmania spp and Schistosoma Mansoni, Cbz-Leu-Arg-AMC for the cysteine proteases from Plasmodium falciparum and Trypanosoma brucei rhodesiensi, and Ac-Lys-Glu-Lys-Leu-Arg-AMC (4 uM final substrate concentration) for the cysteine protease from Trypoanosoma cruzi, and were determined in 100 mM Na acetate at pH 5.5 containing 5 mM cysteine. Stock substrate solutions were prepared at concentrations of […] in DMSO with 10 uM (4 uM for Ac-Lys-Glu-Lys-Leu-Arg-AMC) final substrate concentration in the assays. The final DMSO concentration was 2% and the final volume was 100 uL. All assays were conducted at ambient temperature. Product progress curves were generated over 20 to 30 minutes following formation of AMC product.
(§2) Potential inhibitors were evaluated using the progress curve method. Assays were carried out in the presence of variable concentrations of test compound. Reactions were initiated by addition of enzyme to buffered solutions of inhibitor and substrate. Data analysis was conducted according to one of two procedures depending on the appearance of the progress curves in the presence of inhibitors. For those compounds whose progress curves were linear, apparent inhibition constants (Ki,app) were calculated according to equation 1 (Brandt et al., Biochemitsry, 1989, 28, 140):
(§3) v=VmA/[Ka(1+I/Ki,app)+A] (1)
(§4) Where v is the velocity of the reaction with maximal velocity Vm, A is the concentration of substrate with Michaelis constant of Ka, and I is the concentration of inhibitor.
(§5) [AMC]=vsst+(v0−vss)[1−exp (−kobst)]/kobs (2)
(§6) Where [AMC] is the concentration of product formed over time t, v0 is the initial reaction velocity and vss is the final steady state rate. Values for kobs were then analyzed as a linear function of inhibitor concentration to generate an apparent second order rate constant (kobs/inhibitor concentration or kobs/[I]) describing the time-dependent inhibition. A complete discussion of this kinetic treatment has been fully described (Morrison et al., Adv. Enzymol. Relat. Areas Mol. Biol., 1988, 61, 201).
(§7) Exemplary inhibition data for the compounds used in the present method collected in accordance with the above-described procedure are listed in Table I.

Assay [2] concerns the target Schisto B 1 (Schistosoma mansoni, UniProt P25792). Briefly: Cysteine protease inhibition, progress curve method, schistosoma B 1. The format is biochemical. The method, then:
as §1, §2, §3, §4, §5, §6, §7

Assay [3] addresses Rhodazain (Trypanosoma brucei rhodesiense, UniProt Q95PM0). Briefly: Cysteine protease inhibition, progress curve method, rhodazain. The note with it: Rhodazain Ki (nM), 10 uM Cbz-Leu-Arg-AMC, 100 mM Na acetate pH 5.5, 5 mM cysteine. It is filed as biochemical, Trypanosoma brucei rhodesiensi.
Assay [4] deals with Falcipain 2 (Plasmodium falciparum, UniProt Q8I6U4). Briefly: Cysteine protease inhibition, progress curve method, falcipain. The format is biochemical. Conditions: 10 uM Cbz-Leu-Arg-AMC, 100 mM Na acetate pH 5.5, 5 mM cysteine. An outline of the steps:
(§8)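 Kinetic constants from AMC-release progress curves over 20–30 min at ambient temperature in 100 mM Na acetate pH 5.5, 5 mM cysteine, 2% DMSO; enzyme added last to inhibitor plus substrate. Substrates: 10 uM Cbz-Phe-Arg-AMC (Leishmania, Schistosoma), 10 uM Cbz-Leu-Arg-AMC (falcipain), 4 uM Ac-Lys-Glu-Lys-Leu-Arg-AMC (cruzain). Ki,app from linear curves; time-dependent inhibition as kobs/[I].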

The target in assay [5] is Cruzain (Trypanosoma cruzi, UniProt P25779). Briefly: Cysteine protease inhibition, progress curve method, cruzain. The format is biochemical. Conditions: 4 uM Ac-Lys-Glu-Lys-Leu-Arg-AMC, 100 mM Na acetate pH 5.5, 5 mM cysteine; read-out: Cruzain Ki. A digest of the protocol: as §8
Cruzain, sequence (P25779 123-337): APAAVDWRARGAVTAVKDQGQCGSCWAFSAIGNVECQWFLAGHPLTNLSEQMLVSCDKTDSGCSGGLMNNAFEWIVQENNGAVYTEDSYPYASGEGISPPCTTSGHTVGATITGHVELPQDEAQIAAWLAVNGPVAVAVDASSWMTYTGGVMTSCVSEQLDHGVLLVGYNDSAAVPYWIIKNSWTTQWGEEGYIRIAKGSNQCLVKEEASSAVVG
Assay [6] deals with Schisto B 2 (Schistosoma mansoni, UniProt Q95PM1). As to the kind of experiment: Cysteine protease inhibition, progress curve method, schistosoma B 2. It is filed as biochemical. Conditions: 10 uM Cbz-Phe-Arg-AMC, 100 mM Na acetate pH 5.5, 5 mM cysteine. Here is the method:
as §1, §2, §3, §4, §5, §6, §7

Assay [7] addresses Leishmania L (Leishmania major, UniProt P90628). Briefly: Cysteine protease inhibition, progress curve method, leishmania L. Conditions: 10 uM Cbz-Phe-Arg-AMC, 100 mM Na acetate pH 5.5, 5 mM cysteine. The format is biochemical, Leishmania spp. Here is the method:
as §1, with “Product progress curves were generated over 20 to 30 minutes following formation of AMC product.” left out
Potential inhibitors were evaluated using the progress curve method. […] For those compounds whose progress curves were linear, apparent inhibition constants (Ki,app) were calculated according to equation 1 (Brandt et al., Biochemitsry, 1989, 28, 140): […]
Where [AMC] is the concentration of product formed over time t, v0 is the initial reaction velocity and vss is the final steady state rate. Values for kobs were then analyzed as a linear function of inhibitor concentration to generate an apparent second order rate constant (kobs/inhibitor concentration or kobs/[I]) describing the time-dependent inhibition. […]

Setting [8] is: 10 uM Cbz-Phe-Arg-AMC, 100 mM Na acetate pH 5.5, 5 mM cysteine, read-out: Schisto B 1 Ki.

Schisto B 1, sequence (P25792 89-340): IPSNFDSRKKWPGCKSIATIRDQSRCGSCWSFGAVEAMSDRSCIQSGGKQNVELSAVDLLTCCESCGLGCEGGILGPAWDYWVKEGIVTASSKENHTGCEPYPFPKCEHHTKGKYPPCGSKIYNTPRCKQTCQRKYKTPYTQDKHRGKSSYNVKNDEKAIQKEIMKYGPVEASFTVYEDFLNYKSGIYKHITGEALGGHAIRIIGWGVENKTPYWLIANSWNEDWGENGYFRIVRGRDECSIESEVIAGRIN
Schisto B 2, sequence (Q95PM1 entry or part of it): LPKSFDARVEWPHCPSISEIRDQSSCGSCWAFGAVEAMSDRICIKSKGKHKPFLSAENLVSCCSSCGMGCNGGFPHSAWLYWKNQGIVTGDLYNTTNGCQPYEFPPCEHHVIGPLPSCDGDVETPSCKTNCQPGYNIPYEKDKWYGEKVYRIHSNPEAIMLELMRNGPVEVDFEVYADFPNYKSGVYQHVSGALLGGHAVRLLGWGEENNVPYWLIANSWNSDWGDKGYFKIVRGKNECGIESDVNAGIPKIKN
Rhodazain, sequence (Q95PM0 entry or part of it): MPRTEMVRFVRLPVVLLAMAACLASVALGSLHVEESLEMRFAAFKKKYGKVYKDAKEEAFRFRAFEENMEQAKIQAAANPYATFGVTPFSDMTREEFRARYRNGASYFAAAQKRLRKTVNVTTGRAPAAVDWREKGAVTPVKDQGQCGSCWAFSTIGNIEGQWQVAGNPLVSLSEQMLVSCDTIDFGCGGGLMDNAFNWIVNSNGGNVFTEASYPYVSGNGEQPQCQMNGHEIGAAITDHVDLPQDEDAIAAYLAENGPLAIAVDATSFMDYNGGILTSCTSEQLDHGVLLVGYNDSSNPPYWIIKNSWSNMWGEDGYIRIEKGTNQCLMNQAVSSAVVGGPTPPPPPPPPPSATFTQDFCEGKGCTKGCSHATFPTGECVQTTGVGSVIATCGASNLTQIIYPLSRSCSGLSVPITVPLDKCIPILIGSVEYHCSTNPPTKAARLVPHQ
Falcipain 2, sequence (Q8I6U4 244-484): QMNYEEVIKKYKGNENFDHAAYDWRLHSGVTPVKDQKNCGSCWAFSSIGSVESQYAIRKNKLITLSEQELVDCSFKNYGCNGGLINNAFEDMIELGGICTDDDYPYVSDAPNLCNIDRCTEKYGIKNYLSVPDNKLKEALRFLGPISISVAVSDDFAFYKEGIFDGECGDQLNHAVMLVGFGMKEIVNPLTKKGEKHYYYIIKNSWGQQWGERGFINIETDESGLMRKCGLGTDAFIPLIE
Leishmania L, sequence (P90628 126-443): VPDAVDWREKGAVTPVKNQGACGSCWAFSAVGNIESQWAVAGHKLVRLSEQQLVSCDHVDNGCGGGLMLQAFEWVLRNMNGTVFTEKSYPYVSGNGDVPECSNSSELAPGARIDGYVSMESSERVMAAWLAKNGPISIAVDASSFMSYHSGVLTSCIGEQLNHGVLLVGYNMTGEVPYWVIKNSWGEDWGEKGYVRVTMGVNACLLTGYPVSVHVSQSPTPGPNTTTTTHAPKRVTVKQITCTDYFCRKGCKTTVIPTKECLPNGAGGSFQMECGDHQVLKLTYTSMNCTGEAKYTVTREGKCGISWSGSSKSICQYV

As for `CC(C)C[C@H](NC(=O)c1cc2sccc2s1)C(=O)N[C@H]1C[C@H](C)CN(S(=O)(=O)c2ccccn2)CC1=O` [Example 200, Thieno[3,2-]thiophene-2-carboxylic acid {(S)-3-methyl-1-[6-methyl-3-oxo-1-(pyridine-2-sulfonyl)-azepan-4-ylcarbamoyl]-butyl}-amide], the Ki (as a rule, the dissociation constant of the complex between target and ligand, obtained from inhibition or displacement) in assay [1] amounted to 4.7 nM; in assay [2] (setting [8]), 63 nM; in assay [3] it was 2.3 nM; in assay [4], 4.1 nM; in assay [5], 2.7 nM; in assay [6] it was 65 nM.

With `CC(C)C[C@H](NC(=O)c1cc2ccccc2s1)C(=O)N[C@H]1CCCN(S(=O)(=O)c2ccc(Cl)cc2)CC1=O` [Example 135, Benzo[b]thiophene-2-carboxylic acid-{(S)-1-[1-(4-chloro-benzenesulfonyl)-3-oxo-azepan-4-ylcarbamoyl]-3-methyl-butyl}-amide], the values for the inhibitory constant (Ki) in assay [1], in assay [2] (setting [8]) and in assay [6] were 8 nM, 75 nM and 270 nM, respectively.

As to `O=C(NC(Cc1ccc2ccccc2c1)C(=O)NC1CCCN(S(=O)(=O)c2ccccn2)CC1=O)c1cccc2cccnc12` [Example 187, Quinoline-8-carboxylic acid {(S)-2-naphthalen-2-yl-1-[3-oxo-1-(pyridine-2-sulfonyl)-azepan-4-ylcarbamoyl]-ethyl}-amide], the Ki amounted to 2.1 nM in assay [1], 8.4 nM in assay [2] (setting [8]), 2.5 nM in assay [3] and 6.8 nM in assay [5].

Take `CC(C)CC(NC(=O)c1cc2ccccc2o1)C(=O)NC1CC[C@@H](C)N(S(=O)(=O)c2ccccn2)CC1=O` (single isomer, unassigned) [Example 182]: the inhibitory constant (Ki) was 4.3 nM in assay [1], 61 nM in assay [2] (setting [8]), 1.1 nM in assay [3] and 45 nM in assay [6].

As for `CC(C)C[C@H](NC(=O)c1cc2ccccc2s1)C(=O)N[C@@H]1CCCN(S(=O)(=O)c2ccc(F)cc2)CC1=O` [Example 108, Benzo[b]thiophene-2-carboxylic acid-{(S)-1-[1-(4-fluoro-benzenesulfonyl)-3-oxo-azepan-4-ylcarbamoyl]-3-methyl-butyl}-amide], the Ki in assay [1] was determined as 9.4 nM; in assay [2] (setting [8]), 34 nM; in assay [5], 20 nM; in assay [6] it was 110 nM.

Take `Cc1c(C(=O)N[C@@H](CC(C)C)C(=O)N[C@H]2CCCN(S(=O)(=O)c3cccc(Cl)c3)CC2=O)oc2ccccc12` [Example 90, 3-Methyl-benzofuran-2-carboxylic acid-{(S)-1-[1-(3-chloro-benzenesulfonyl)-3-oxo-azepan-4-ylcarbamoyl]-3-methyl-butyl}-amide]: the results for the inhibition constant Ki in assay [1], in assay [2] (setting [8]) and in assay [6] were 3.3 nM, 48 nM and 71 nM, respectively.

As to “Naphthlene-2-carboxylic acid ((S)-3-methyl-1-{3-oxo-1-[2-(3-pyridin-2-yl-phenyl)ethyl]-azepan-4-ylcarbamoyl}-butyl)amide [Example 10]”, in assay [7], the Ki was 82 nM.

For `O=C(N[C@@H](Cc1ccc2ccccc2c1)C(=O)NC1CCCN(S(=O)(=O)c2ccccn2)CC1=O)c1cccc2ccccc12` (single isomer, unassigned) [Example 188], the Ki worked out at 2.8 nM in assay [1], 24 nM in assay [2] (setting [8]), 4 nM in assay [3] and 22 nM in assay [6].

`O=C(N[C@@H](Cc1ccc2ccccc2c1)C(=O)NC1CCCN(S(=O)(=O)c2ccccn2)CC1=O)c1cc2ccccc2o1` (stereo partly drawn) [Example 159, Benzofuran-2-carboxylic acid {(S)-2-naphthalen-2-yl-1-[3-oxo-1-(pyridine-2-sulfonyl)-azepan-4-ylcarbamoyl)-ethyl]-amide]: the Ki came to 1.4 nM in assay [1], 47 nM in assay [2] and 3.4 nM in assay [3].

Consider `O=C(N[C@@H](Cc1ccc2ccccc2c1)C(=O)NC1CCCN(S(=O)(=O)c2ccccn2)CC1=O)c1cccc2cccnc12` (stereo partly drawn) [Example 174, Quinoline-8-carboxylic acid {(S)-2-naphthalen-2-yl-1-[3-oxo-1-(pyridine-2-sulfonyl)-azepan-4-ylcarbamoyl)-ethyl]-amide], for which the inhibitory constant (Ki) worked out at 1.7 nM in assay [1], 27 nM in assay [2] (setting [8]), 4.7 nM in assay [3] and 8.3 nM in assay [6].

Regarding `COc1ccc2oc(C(=O)N[C@@H](CC(C)C)C(=O)N[C@H]3CCCN(S(=O)(=O)c4ccc(Cl)cc4)CC3=O)cc2c1` [Example 132, 5-Methoxy-benzofuran-2-carboxylic acid {(S)-1-[1-(4-chloro-benzenesulfonyl)-3-oxo-azepan-4-ylcarbamoyl]-3-methyl-butyl}-amide], the Ki came to 8.1 nM in assay [1], 150 nM in assay [2] (setting [8]) and 880 nM in assay [6].

For `O=C(N[C@@H](Cc1ccc2ccccc2c1)C(=O)NC1CCCN(S(=O)(=O)c2ccccn2)CC1=O)c1cccc2ccccc12` (stereo partly drawn) [Example 175, Naphthalene-1-carboxylic acid {(S)-2-naphthalen-2-yl-1-[3-oxo-1-(pyridine-2-sulfonyl)-azepan-4-ylcarbamoyl)-ethyl]-amide], the Ki came to 1.7 nM in assay [1], 37 nM in assay [2] (setting [8]), 5.6 nM in assay [3] and 21 nM in assay [6].

On to `CC(C)C[C@H](NC(=O)c1cc2ccccc2o1)C(=O)N[C@H]1CCCN(S(=O)(=O)c2ccc(Cl)cc2)CC1=O` [Example 131, Benzofuran-2-carboxylic acid {(S)-1-[1-(4-chloro-benzenesulfonyl)-3-oxo-azepan-4-ylcarbamoyl]-3-methyl-butyl}-amide], for which the results for the Ki in assay [1], in assay [2] (setting [8]) and in assay [6] were 11 nM, 75 nM and 300 nM, respectively.

Consider `COc1ccc2oc(C(=O)N[C@@H](CC(C)C)C(=O)N[C@H]3CCCN(S(=O)(=O)c4cccc(Cl)c4)CC3=O)cc2c1` [Example 89, 5-Methoxy-benzofuran-2-carboxylic acid-{(S)-1-[1-(3-chloro-benzenesulfonyl)-3-oxo-azepan-4-ylcarbamoyl]-3-methyl-butyl}-amide], for which the inhibition constant Ki in assay [1] was found to be 24 nM; in assay [2] (setting [8]), 34 nM; in assay [5], 11 nM; in assay [6], 130 nM.
